Reference: US9504729B2, “Antiangiogenic small molecules and methods of use” (The United States of America, as represented by the …, priority 2009, dated 2016)

Test system: angiogenesis genes in dermal microvascular endothelial cells
Assay: Real time RT-PCR of angiogenesis gene expression during endothelial tube formation
Assay type: cell-based
Details: 1 μM SM, 24 hours

COC(=O)C1CC(=O)C(C(=O)OC)CC1=O (centres unmarked) [Compound 122567]
Log2 fold-change of gene expression: 1839: 1.0
Log2 fold-change of gene expression: 4247: 0.3
Log2 fold-change of gene expression: 5569: 0.8
Log2 fold-change of gene expression: 8131: 0.1
Log2 fold-change of gene expression: 9569: −2.2
Log2 fold-change of gene expression: 10988: 1.2
Log2 fold-change of gene expression: 23001: −0.5
Log2 fold-change of gene expression: 55332: −1.0
Log2 fold-change of gene expression: 57722: 0.1
Log2 fold-change of gene expression: 58488: 1.5
Log2 fold-change of gene expression: 90780: −1.9
Log2 fold-change of gene expression: 134265: −0.2
Log2 fold-change of gene expression: AKT1: −1.6
Log2 fold-change of gene expression: ANGPT1: 1.6
Log2 fold-change of gene expression: ANGPT2: −0.9
Log2 fold-change of gene expression: ANGPTL3: −1.7
Log2 fold-change of gene expression: ANGPTL4: −0.4
Log2 fold-change of gene expression: ANPEP: −1.2
Log2 fold-change of gene expression: ANTXR1: −3.5
Log2 fold-change of gene expression: APOE: 0.8
Log2 fold-change of gene expression: ARHGEF1: −5.0
Log2 fold-change of gene expression: Acvrl1: −1.3
Log2 fold-change of gene expression: Adcy4: −0.4
Log2 fold-change of gene expression: BAL1: 0.2
Log2 fold-change of gene expression: BMP1: 0.9
Log2 fold-change of gene expression: C1orf54: −3.4
Log2 fold-change of gene expression: CALD1: 2.3
Log2 fold-change of gene expression: CCL2: 2.5
Log2 fold-change of gene expression: CCL11: 0.6
Log2 fold-change of gene expression: CD248: 1.2
Log2 fold-change of gene expression: CDH5: −1.9
Log2 fold-change of gene expression: CENTD3: 1.1
Log2 fold-change of gene expression: CLIC1: 0.9
Log2 fold-change of gene expression: COL4A3: 1.9
Log2 fold-change of gene expression: COL18A1: 1.6
Log2 fold-change of gene expression: COMT: −1.5
Log2 fold-change of gene expression: CST4: 1.3
Log2 fold-change of gene expression: CTTNBP2NL: −0.9
Log2 fold-change of gene expression: CXCL3: 4.0
Log2 fold-change of gene expression: CXCL5: 4.3
Log2 fold-change of gene expression: CXCL6: 1.1
Log2 fold-change of gene expression: CXCL9: 1.6
Log2 fold-change of gene expression: CXCL10: 3.7
Log2 fold-change of gene expression: Calcr1: −4.0
Log2 fold-change of gene expression: Caskin2: −2.3
Log2 fold-change of gene expression: Ccbp2: 1.4
Log2 fold-change of gene expression: Cldn5: 0.0
Log2 fold-change of gene expression: DGKG: 2.0
Log2 fold-change of gene expression: DKK3: −1.9
Log2 fold-change of gene expression: DLL4: −8.7
Log2 fold-change of gene expression: DUT: −1.8
Log2 fold-change of gene expression: EFNA1: −0.3
Log2 fold-change of gene expression: EFNA3: −0.4
Log2 fold-change of gene expression: EFNB2: −4.0
Log2 fold-change of gene expression: EGF: −0.3
Log2 fold-change of gene expression: ENG: −1.7
Log2 fold-change of gene expression: EPHB4: −0.5
Log2 fold-change of gene expression: EREG: 1.9
Log2 fold-change of gene expression: ESAM1: −2.9
Log2 fold-change of gene expression: EXTL3: 0.3
Log2 fold-change of gene expression: Egf17: −2.6
Log2 fold-change of gene expression: Ehd4: −0.8
Log2 fold-change of gene expression: Entpd1: −0.3
Log2 fold-change of gene expression: Epas1: 0.9
Log2 fold-change of gene expression: EphB1: 0.8
Log2 fold-change of gene expression: Erg: 2.4
Log2 fold-change of gene expression: FGF1: 1.9
Log2 fold-change of gene expression: FGF2: −0.7
Log2 fold-change of gene expression: FGFR3: 1.2
Log2 fold-change of gene expression: FIGF: −0.1
Log2 fold-change of gene expression: FLT1: −4.4
Log2 fold-change of gene expression: Fgd5: −1.5
Log2 fold-change of gene expression: GPCR124: −3.7
Log2 fold-change of gene expression: GRRP1: −0.3
Log2 fold-change of gene expression: Grp116: −2.3
Log2 fold-change of gene expression: HAND2: 0.4
Log2 fold-change of gene expression: HGF: 1.3
Log2 fold-change of gene expression: HIF1A: −3.1
Log2 fold-change of gene expression: HPSE: −8.3
Log2 fold-change of gene expression: Hspa12b: −3.4
Log2 fold-change of gene expression: ID1: −0.2
Log2 fold-change of gene expression: ID3: −0.3
Log2 fold-change of gene expression: IFNA1: 1.1
Log2 fold-change of gene expression: IFNB1: 1.2
Log2 fold-change of gene expression: IFNG: 8.3
Log2 fold-change of gene expression: IGF1: −0.1
Log2 fold-change of gene expression: IL1B: −0.1
Log2 fold-change of gene expression: IL6: 14.4
Log2 fold-change of gene expression: IL8: 7.4
Log2 fold-change of gene expression: ITGAV: −2.7
Log2 fold-change of gene expression: ITGB3: −1.4
Log2 fold-change of gene expression: Icam1: 0.0
Log2 fold-change of gene expression: Icam2: 0.1
Log2 fold-change of gene expression: JAG1: 0.6
Log2 fold-change of gene expression: KDR: −2.3
Log2 fold-change of gene expression: Kifc1: 1.1
Log2 fold-change of gene expression: LAMAS5: −1.1
Log2 fold-change of gene expression: LECT1: 0.3
Log2 fold-change of gene expression: LEP: 0.2
Log2 fold-change of gene expression: Lasts2: 4.8
Log2 fold-change of gene expression: Lrrk1: −0.5
Log2 fold-change of gene expression: MDK: −0.9
Log2 fold-change of gene expression: MMP2: 0.3
Log2 fold-change of gene expression: MMP9: 0.9
Log2 fold-change of gene expression: MMP11: 1.3
Log2 fold-change of gene expression: MRC2: 0.7
Log2 fold-change of gene expression: Mmm2: −3.5
Log2 fold-change of gene expression: Myo1b: −2.9
Log2 fold-change of gene expression: NID1: −6.3
Log2 fold-change of gene expression: NM023516: 0.2
Log2 fold-change of gene expression: NRP1: −3.0
Log2 fold-change of gene expression: NRP2: −4.3
Log2 fold-change of gene expression: Notch4: −1.1
Log2 fold-change of gene expression: Npr3: 1.5
Log2 fold-change of gene expression: PALD: −0.5
Log2 fold-change of gene expression: PDCD2: −0.4
Log2 fold-change of gene expression: PDGFA: −1.7
Log2 fold-change of gene expression: PECAM1: −2.7
Log2 fold-change of gene expression: PGF: −4.9
Log2 fold-change of gene expression: PLAU: −0.1
Log2 fold-change of gene expression: PLG: −1.5
Log2 fold-change of gene expression: PNMT: 1.1
Log2 fold-change of gene expression: PROK2: 1.3
Log2 fold-change of gene expression: PTGS1: 0.8
Log2 fold-change of gene expression: PTPRCAP: 0.0
Log2 fold-change of gene expression: Pltp: 1.5
Log2 fold-change of gene expression: Ptprb: 0.5
Log2 fold-change of gene expression: Ptprm: −0.4
Log2 fold-change of gene expression: RAMP2: −5.8
Log2 fold-change of gene expression: RASD2: 0.5
Log2 fold-change of gene expression: Rasip1: −1.2
Log2 fold-change of gene expression: S1PR1: −0.7
Log2 fold-change of gene expression: SERPINF1: 0.2
Log2 fold-change of gene expression: SPHK1: 0.9
Log2 fold-change of gene expression: STAB1: −1.7
Log2 fold-change of gene expression: Sdc4: 0.4
Log2 fold-change of gene expression: Sdpr: 1.6
Log2 fold-change of gene expression: Slc43a3: 1.8
Log2 fold-change of gene expression: Slco2a1: −0.6
Log2 fold-change of gene expression: TEK: 0.3
Log2 fold-change of gene expression: TGFA: 2.0
Log2 fold-change of gene expression: TGFB1: −1.2
Log2 fold-change of gene expression: TGFB2: 1.2
Log2 fold-change of gene expression: TGFBR1: 1.2
Log2 fold-change of gene expression: THBS1: 0.1
Log2 fold-change of gene expression: THBS2: 1.2
Log2 fold-change of gene expression: THY1: −9.4
Log2 fold-change of gene expression: TIMP1: −1.4
Log2 fold-change of gene expression: TIMP2: −1.4
Log2 fold-change of gene expression: TIMP3: −4.3
Log2 fold-change of gene expression: TNF: −0.2
Log2 fold-change of gene expression: TNS1: 0.0
Log2 fold-change of gene expression: TNS3: 2.0
Log2 fold-change of gene expression: TRA2B: −1.6
Log2 fold-change of gene expression: TYMP: −0.3
Log2 fold-change of gene expression: VEGFA: 4.9
Log2 fold-change of gene expression: VEGFC: 1.8
Log2 fold-change of gene expression: VGLL4: −3.5
Log2 fold-change of gene expression: Vwf: −3.5
Log2 fold-change of gene expression: copa: 0.1
Log2 fold-change of gene expression: itbp4: −1.9
Log2 fold-change of gene expression: ralb: 0.3
Log2 fold-change of gene expression: stard9: 0.5
Log2 fold-change of gene expression: B2M (1st listing (r49)): 0.1
Log2 fold-change of gene expression: HPRT1 (1st listing (r50)): 0.0
Log2 fold-change of gene expression: RPL13A (1st listing (r51)): 0.7
Log2 fold-change of gene expression: GADPH (1st listing (r52)): −0.7
Log2 fold-change of gene expression: ACTB (1st listing (r53)): −1.0
Log2 fold-change of gene expression: PLXDC1 (1st listing (r74)): 0.7
Log2 fold-change of gene expression: TNFAIP2 (1st listing (r91)): −1.0
Log2 fold-change of gene expression: Robo4 (1st listing (r95)): 0.0
Log2 fold-change of gene expression: 151516 (1st listing (r134)): 1.1
Log2 fold-change of gene expression: TNFAIP2 (2nd listing (r92)): −1.1
Log2 fold-change of gene expression: B2M (2nd listing (r97)): −0.2
Log2 fold-change of gene expression: HPRT1 (2nd listing (r98)): 0.0
Log2 fold-change of gene expression: RPL13A (2nd listing (r99)): 1.2
Log2 fold-change of gene expression: GADPH (2nd listing (r100)): −0.8
Log2 fold-change of gene expression: ACTB (2nd listing (r101)): −1.0
Log2 fold-change of gene expression: PLXDC1 (2nd listing (r104)): −1.7
Log2 fold-change of gene expression: 151516 (2nd listing (r139)): 1.3
Log2 fold-change of gene expression: Robo4 (2nd listing (r188)): 1.2
Log2 fold-change of gene expression: B2M (3rd listing (r145)): −0.2
Log2 fold-change of gene expression: HPRT1 (3rd listing (r146)): −0.6
Log2 fold-change of gene expression: RPL13A (3rd listing (r147)): 0.9
Log2 fold-change of gene expression: GADPH (3rd listing (r148)): −0.7
Log2 fold-change of gene expression: ACTB (3rd listing (r149)): −0.5
Log2 fold-change of gene expression: B2M (4th listing (r193)): 0.3
Log2 fold-change of gene expression: HPRT1 (4th listing (r194)): −0.2
Log2 fold-change of gene expression: RPL13A (4th listing (r195)): 1.3
Log2 fold-change of gene expression: GADPH (4th listing (r196)): −2.0
Log2 fold-change of gene expression: ACTB (4th listing (r197)): −0.1
